How the values were obtained:
[1] = system: TNFα release in d-U937 cells; experiment: LPS-induced TNFα release in d-U937 cells; type: cell-based; details: Homo sapiens, dU937; read-out: LPS Induced Release TNFα REC50 (dU937); also: relative to 10 µg/mL BIRB-796
Description: U937 cells, a human monocytic cell line, were differentiated into macrophage-type cells by incubation with PMA (100-200 ng/mL) for 48 to 72 h. Cells were pre-incubated with final […] concentrations of test compound for 2 h and were then stimulated with LPS (0.1 μg/mL; from E. coli: O111:B4, Sigma) for 4 h. The supernatant was collected for determination of TNFα and IL-8 concentrations by sandwich ELISA (Duo-set, R&D systems). […] The relative 50% effective concentration (REC50) was determined from the resultant concentration-response curve. The inhibition of IL-8 production was calculated at each concentration of test compound by comparison with vehicle control.

[2] = system: ICAM-1 expression in BEAS2B cells; experiment: Poly I:C-induced ICAM-1 expression in BEAS2B cells; type: cell-based; details: Homo sapiens, BEAS-2B, read-out: PolyIC/ICAM1 IC50 (BEAS2B)
Description: Poly I:C was used in these studies as a simple, RNA virus mimic. Poly I:C-Oligofectamine mixture (2% Oligofectamine±1 μg/mL Poly I:C, 25 μL; Life Technologies and Invivogen Ltd., San Diego, Calif., respectively) was transfected into BEAS2B cells (human bronchial epithelial cells, ATCC). Cells were pre-incubated with final concentrations of test compounds for 2 h and the level of ICAM-1 expression on the cell surface was determined by cell-based ELISA. At a time point 18 h after poly I:C transfection, cells were fixed with 4% formaldehyde in PBS (100 μL) and then endogenous peroxidase was quenched by the addition of washing buffer (100 μL, 0.05% Tween in PBS: PBS-Tween) containing 0.1% sodium azide and 1% hydrogen peroxide. Cells were washed with wash-buffer (3×200 μL). After blocking the wells with 5% milk in PBS-Tween (100 μL) for 1 h, the cells were incubated with anti-human ICAM-1 antibody (50 μL; Cell Signaling Technology, Danvers, Mass.) in 1% BSA PBS overnight at 4° C.
The cells were washed with PBS-Tween (3×200 μL) and incubated with the secondary antibody (100 μL; HRP-conjugated anti-rabbit IgG, Dako Ltd., Glostrup, Denmark). The cells were then incubated with of substrate (50 μL) for 2-20 min, followed by the addition of stop solution (50 μL, 1N H2SO4). The ICAM-1 signal was detected by reading the absorbance at 450 nm against a reference wavelength of 655 nm using a spectrophotometer. The cells ware then washed with PBS-Tween (3×200 μL) and total cell numbers in each well were determined by reading absorbance at 595 nm after Crystal Violet staining (50 μL of a 2% solution in PBS) and elution by 1% SDS solution (100 μL) in PBS. The measured OD 450-655 readings were corrected for cell number by dividing with the OD595 reading in each well. The inhibition of ICAM-1 expression was calculated at each concentration of test compound by comparison with vehicle control.

Syk = target: T1, Syk (Homo sapiens, UniProt P43405); experiment: Syk enzyme inhibition (Z-LYTE FRET); type: biochemical; details: Table 2A
T1 construct: purchased Life Technologies
In short: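 Z-LYTE readout: coumarin-to-fluorescein ratio after 1 h protease cleavage of unphosphorylated peptide. Kinase reactions ran 1 h at RT with ATP stock at 800 μM (c-Src) or 60 μM (Hck, Syk), following 2 h compound preincubation over 0.0012–40 μg/mL; enzyme stocks 1000/1400/2000 ng/mL.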

Hck = target: T2, Hck (Homo sapiens, UniProt P08631); experiment: Hck enzyme inhibition (Z-LYTE FRET); type: biochemical; details: Table 2A
T2 construct: purchased Life Technologies
Description: (§1) The enzyme inhibitory activities of compounds disclosed herein were determined by FRET using synthetic peptides labelled with both donor and acceptor fluorophores (Z-LYTE, Life Technologies, Paisley, UK).
(§2) The relevant enzyme (1000 ng/mL, 1400 ng/mL or 2000 ng/mL respectively, 2.5 μL) was incubated with the test compound (either 40 μg/mL, 12 μg/mL, 4 μg/mL, 1.2 μg/mL, 0.4 μg/mL, 0.12 μg/mL, 0.04 μg/mL, 0.012 μg/mL, 0.004 μg/mL or 0.0012 μg/mL, 2.5 μL each) for 2 h at RT. The FRET peptides (8 μM, 2.5 μL), and appropriate ATP solutions (2.5 μL, 800 μM for c-Src, and 60 μM ATP for HCK and Syk) were then added to the enzyme/compound mixtures and incubated for 1 h at RT. Development reagent (protease, 5 μL) was added for 1 h prior to detection in a fluorescence microplate reader (EnVision, Perkin Elmer).
(§3) In all cases, the site-specific protease cleaves non-phosphorylated peptide only and eliminates the FRET signal. Phosphorylation levels of each reaction were calculated using the ratio of coumarin emission (donor) over fluorescein emission (acceptor), for which low ratios indicate high phosphorylation and high ratios indicate low phosphorylation levels.

c-Src = target: T3, c-Src (Homo sapiens, UniProt P12931); experiment: c-Src enzyme inhibition (Z-LYTE FRET); type: biochemical; details: Table 2A
T3 construct: purchased Life Technologies
Description: as §1, §2, §3

[3] = target: T4, p38 MAPKα isoform (MAPK14) (Homo sapiens, UniProt Q16539); experiment: p38 MAPKα enzyme inhibition (Z-LYTE FRET); type: biochemical; details: Table 2A; read-out: IC50 Values for Enzyme Inhibition p38 MAPKα
T4 construct: purchased Life Technologies
In short: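 Activity was measured indirectly as phosphorylation of a MAPKAP-K2-derived FRET peptide. Enzyme (added at 40 ng/mL) was preincubated 2 h at RT with compound (added solutions 40–0.0012 μg/mL).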

T3 sequence (P12931 whole entry): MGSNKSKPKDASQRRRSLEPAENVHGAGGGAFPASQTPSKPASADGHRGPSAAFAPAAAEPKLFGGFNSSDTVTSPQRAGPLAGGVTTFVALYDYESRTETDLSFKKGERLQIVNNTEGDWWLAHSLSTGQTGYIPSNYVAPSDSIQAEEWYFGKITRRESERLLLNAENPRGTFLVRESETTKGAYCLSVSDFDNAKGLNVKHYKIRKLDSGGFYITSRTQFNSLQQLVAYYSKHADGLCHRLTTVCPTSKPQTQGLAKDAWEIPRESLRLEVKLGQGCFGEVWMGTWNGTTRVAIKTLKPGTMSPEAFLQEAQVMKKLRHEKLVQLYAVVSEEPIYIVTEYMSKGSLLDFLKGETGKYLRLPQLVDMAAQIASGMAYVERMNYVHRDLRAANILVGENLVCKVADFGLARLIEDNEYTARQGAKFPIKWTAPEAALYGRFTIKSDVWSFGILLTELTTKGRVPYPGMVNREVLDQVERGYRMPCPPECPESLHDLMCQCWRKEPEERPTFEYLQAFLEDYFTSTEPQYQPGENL
T2 sequence (P08631 22-526): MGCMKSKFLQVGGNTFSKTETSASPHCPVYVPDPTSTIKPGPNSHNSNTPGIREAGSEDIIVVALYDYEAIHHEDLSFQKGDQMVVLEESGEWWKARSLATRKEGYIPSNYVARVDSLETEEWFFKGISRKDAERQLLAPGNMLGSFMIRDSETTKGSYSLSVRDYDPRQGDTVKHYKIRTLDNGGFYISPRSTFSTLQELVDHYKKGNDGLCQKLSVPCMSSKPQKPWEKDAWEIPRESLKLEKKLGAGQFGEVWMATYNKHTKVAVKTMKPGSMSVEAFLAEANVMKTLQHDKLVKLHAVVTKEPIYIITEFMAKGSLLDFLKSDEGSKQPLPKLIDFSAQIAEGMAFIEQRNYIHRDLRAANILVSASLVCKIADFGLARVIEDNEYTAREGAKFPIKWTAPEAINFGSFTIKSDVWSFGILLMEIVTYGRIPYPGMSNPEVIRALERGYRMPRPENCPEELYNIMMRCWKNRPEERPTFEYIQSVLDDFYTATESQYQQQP
T4 sequence (Q16539 whole entry, canonical isoform): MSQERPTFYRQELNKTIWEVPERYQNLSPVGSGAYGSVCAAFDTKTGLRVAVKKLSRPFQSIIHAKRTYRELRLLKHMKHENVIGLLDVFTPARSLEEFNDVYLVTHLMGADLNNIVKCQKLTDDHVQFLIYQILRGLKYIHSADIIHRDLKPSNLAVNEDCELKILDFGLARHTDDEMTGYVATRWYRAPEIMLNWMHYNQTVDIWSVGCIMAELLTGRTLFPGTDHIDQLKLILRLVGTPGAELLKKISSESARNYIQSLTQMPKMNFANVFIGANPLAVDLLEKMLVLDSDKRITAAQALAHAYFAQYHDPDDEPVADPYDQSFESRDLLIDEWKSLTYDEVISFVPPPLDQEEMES

| EC50 [1] [nM] | IC50 (Syk) [µM] | IC50 (Hck) [nM] | IC50 (c-Src) [nM] | IC50 [3] [nM] | Compound | IC50 [2] [nM] |
| --- | --- | --- | --- | --- | --- | --- |
| 8.5 | 7.52 | 10 | 24 | 3 | CC(=O)NCc1cnc(Nc2cc(COc3ccc(NC(=O)Nc4cc(C(C)(C)C)nn4-c4ccc(C)cc4)c4ccccc34)ccn2)cn1 [Example 6, N-((5-((4-(((4-(3-(3-(tert-butyl)-1-(p-tolyl)-1H-pyrazol-5-yl)ureido)naphthalen-1-yl)oxy)methyl)pyridin-2-yl)amino)pyrazin-2-yl)methyl)acetamide] | 52.4 |
| 5.2 | > 15.2 | 6 | 19 | 2 | Cc1ccc(-n2nc(C(C)(C)C)cc2NC(=O)Nc2ccc(OCc3ccnc(Nc4cnc(CC(N)=O)cn4)c3)c3ccccc23)cc1 [Example 30] | 115 |
| 1.3 | > 16.3 | 52 | 150 | 15 | Cc1ccc(-n2nc(C(C)(C)C)cc2NC(=O)Nc2ccc(OCc3ccnc(Nc4cncc(C)n4)c3)c3ccccc23)cc1 [Example 20] | 152 |
| 2.6 | > 15.9 | 41 | 196 | 13 | COc1cncc(Nc2cc(COc3ccc(NC(=O)Nc4cc(C(C)(C)C)nn4-c4ccc(C)cc4)c4ccccc34)ccn2)n1 [Example 18] | 97.8 |
| 4.3 | 9.16 | 13 | 42 | 17 | Cc1cc(-n2nc(C(C)(C)C)cc2NC(=O)Nc2ccc(OCc3ccnc(Nc4cncc(C5CC5)n4)c3)c3ccccc23)cs1 [Example 27] | 71.2 |
| 4.5 | 1.58 | 20 | 56 | 7 | Cc1ccc(-n2nc(C(C)(C)C)cc2NC(=O)Nc2ccc(OCc3ccnc(Nc4cnc(CO)cn4)c3)c3ccccc23)s1 [Example 26] | 973 |
| 2.8 | > 15.9 | < 0.48 | < 0.48 | < 0.48 | Cc1ccc(-n2nc(C(C)(C)C)cc2NC(=O)Nc2ccc(OCc3ccnc(Nc4cnc(CN)cn4)c3)c3ccccc23)cc1 [Example 5, 1-(4-((2-((5-(Aminomethyl)pyrazin-2-yl)amino)pyridin-4-yl)methoxy)naphthalen-1-yl)-3-(3-(tert-butyl)-1-(p-tolyl)-1H-pyrazol-5-yl)urea] | 474 |
| 1.4 | 2.22 | 5 | 10 | 7 | CC(C)(C)c1cc(NC(=O)Nc2ccc(OCc3ccnc(Nc4cncc(C5CC5)n4)c3)c3ccccc23)n(-c2ccc(CO)cc2)n1 [Example 25] | 13.1 |
| 3.5 | > 16.2 | 2240 | 7890 | 120 | CC(C)(C)c1cc(NC(=O)Nc2ccc(OCc3ccnc(Nc4cnccn4)c3)c3ccccc23)n(-c2ccc(Cl)cc2)n1 [Example 45] | 1440 |
